Data: patent US20240341340A1, “EYE DAMAGE PREVENTION COMPOSITION CONTAINING DENDROPANAX MORBIFERA LEV. EXTRACT” (KOREA GINSENG CORP., priority 2021, published 2024)

Experiments:
Format in all cases: in vivo, mouse
[1] = system: BALB/c mice, white LED light-induced loss of optic nerve cells; test: Outer nuclear layer thickness in light-induced macular degeneration animal model; details: 6.5 mg/kg/day oral for 7 days
Description: When drusen accumulates in the macular area due to dry macular degeneration, the macular area is photooxidized and causes damage to surrounding tissues and optic nerve cells, thereby resulting in a decrease of visual acuity, and in severe cases, geographic atrophy occurs, a condition in which optic nerve cells are lost and retinal apoptosis is induced. In order to determine whether a Dendropanax morbifera extract has the effect of improving damage or deformation of photoreceptor cells in an animal model where optic nerve cell damage was caused by excessive irradiation of a light source including blue light and loss of optic nerve cells similar to dry macular degeneration, the changes in the thickness of outer nuclear layer (ONL) of the retina were measured. Specifically, 6-week-old male BALB/c mice (Orient Bio Inc.) were acclimatized for one week and then subjected to dark adaptation in a dark place without light for 14 hours from the evening before white LED exposure containing blue light, and then, their pupils were dilated with 1% tropicamide eye drop the next morning. […] The slide sections were stained with hematoxylin & eosin (H&E) and observed under an optical microscope, and damage or deformation of photoreceptor cells was evaluated by measuring changes in the thickness of the outer nuclear layer of retinal tissue

[2] = system: BALB/c mice, white LED light-induced loss of optic nerve cells; test: Electroretinogram (wave a and wave b) in light-induced macular degeneration animal model; details: 6.5 mg/kg/day oral
Description: An electroretinogram (ERG) is a degree of electric potential of the retinal optic nerve representing an electrical signal generated by a response of the optic nerve to light, and is used as an index to determine the presence/absence of retinal damage or disease. The electroretinogram consists of wave a and wave b, in which the wave a is generated by photoreceptors, and the wave b is generated by depolarization of bipolar cells in the inner nuclear layer of the retina by light stimulation. In order to confirm whether a Dendropanax morbifera extract has the effect of improving the decrease of activity of visual cells in an animal model in which optic nerve cell damage was caused by the irradiation of an excessive light source and loss of optic nerve cells similar to dry macular degeneration was induced, the electroretinogram was measured. […] An appropriate amount of 1% methylcellulose was added to the eyeballs while maintaining body temperature under general anesthesia, and the gold wire loops recording electrode was grounded to the cornea, and the reference electrode was placed on the cheek area, and the ground electrode was grounded to the tail, and then the electroretinogram was measured using Retiport (Roland Consult, Germany). […]

[3] = system: BALB/c mice, MNU-induced loss of optic nerve cells; test: Outer nuclear layer thickness in N-methyl-N-nitrosourea (MNU) animal model; details: 6.5 and 13 mg/kg/day oral for 7 days
Method: In order to confirm the effect of the Dendropanax morbifera extract on improving damage or deformation of photoreceptor cells, N-methyl-N-nitrosourea (MNU) toxic to photoreceptor cells was administered, and the changes in thickness of the outer nuclear layer (ONL) of the retina were measured in an animal model where loss of optic nerve cells similar to dry macular degeneration was induced. Specifically, 6-week-old male BALB/c mice (Orient Bio Inc.) were acclimatized for one week, and N-methyl-N-nitrosourea (MNU) (Sigma, USA) was prepared to a concentration of 1% in a 0.05% acetic acid solution and was administered intraperitoneally to mice at a concentration of 1%, 60 mg/kg per individual, in which only the same amount of 0.05% acetic acid was administered intraperitoneally in the negative control. The test drug was orally administered once daily for 7 days from the same day after administration of N-methyl-N-nitrosourea. […] The slide sections were stained with hematoxylin & eosin (H&E) and observed under an optical microscope, and damage or deformation of photoreceptor cells was evaluated by measuring changes in the thickness of the outer nuclear layer of retinal tissue.

O=C(/C=C/c1ccc(O)c(O)c1)O[C@@H]1C[C@@](O)(C(=O)O)C[C@@H](O)[C@@H]1O [neochlorogenic acid, Neochlorogenic acid]
not statistically significant: increase of thickness of the outer nuclear layer (positive control) [1] | improvement of retinal nerve conduction (positive control) [2] | increase of thickness of the outer nuclear layer (positive control) [3]
